Where two headings read alike, the source gives them in different places.
Biological target: T1, human somatostatin receptor subtype 2 (Homo sapiens, UniProt P30874)
T1 construct: expressed in transfected cells
Experiment: Functional cAMP assay for SSTR2 agonists (HTRF) in CHO-K1 cells
Assay type: cell-based
Settings: CHO-K1 cells stably expressing human SST2, 20 min
Excerpt: General overview: All five SSTR subtypes are Gi coupled G-protein coupled receptors (GPCRs) that lead to decreases in intracellular cyclic AMP (cAMP) when activated by an agonist. Therefore, measurement of intracellular cAMP levels can be used to assess whether compounds of the invention are agonists of SSTR subtypes (John Kelly, Troy Stevens, W. Joseph Thompson, and Roland Seifert, Current Protocols in Pharmacology, 2005, 2.2.1-2.2). One example of an intracellular cAMP assay is described below.
Functional Assay for SSTR2 Agonists
Four days prior to the assay, 2,000 Chinese hamster ovary cells (CHO-K1, ATCC #CCL-61) stably expressing the human somatostatin receptor subtype 2 are plated in each well of a 96-well tissue culture-treated plate in Ham's F12 growth media (ThermoFisher #10-080-CM) supplemented with 10% donor bovine serum (Gemini Bio-Products #100-506), 100 U/mL penicillin; 100 ug/mL streptomycin; 2 mM L-glutamine (Gemini Bio-Products #400-110) and 0.2 mg/mL hygromycin B (GoldBio #31282-04-9). The cells are cultured at 37° C., 5% CO2 and 95% humidity. cAMP is measured with HTRF dynamic cAMP assay (Cisbio, #62AM5PEJ) per manufacturer's instructions. On the day of the assay, the media is aspirated and the cells are treated with 50 μL of stimulation buffer supplemented with 10.2 mM 3-Isobutyl-1-methylxanthine (IBMX, Millipore Sigma #15879) and 1.6 μM NKH477 (Tocris #1603), plus various dilutions of SMDCs of the present invention. The cells are incubated for 20 minutes at 37° C. (the final concentration of the compounds of the invention are typically 0-10,000 nM). The cells are treated with 50 μL of lysis buffer (HRTF cAMP kit, Cisbio) and incubated at room temperature for 30 minutes with rotary shaking at 600 rpm, and then diluted with 150 μL of stimulation buffer and shaken for an additional five minutes at 300 rpm. The lysate is transferred to 384-well plates and incubated for 1-24 hours at room temperature, and cAMP accumulation is detected by d2-labeled cAMP and Anti-cAMP-Cryptate. The time-resolved fluorescent signal is read using a m1000 Pro (Tecan) or CLARIOStar (BMG Labtech) microplate reader, where the samples are excited with light at 340 nm and emission light is measured at 620 nm and 665 nm. The data is expressed as a calculation of the fluorescence ratio (665 nm/620 nm). The intracellular cAMP concentrations are calculated by regression to a standard curve and are plotted vs. the concentration of the compounds of the invention. The EC50 of the compounds are calculated using standard methods. All data manipulations are in GraphPad Prism v9 (GraphPad, San Diego, CA).

T1 sequence (P30874 whole entry): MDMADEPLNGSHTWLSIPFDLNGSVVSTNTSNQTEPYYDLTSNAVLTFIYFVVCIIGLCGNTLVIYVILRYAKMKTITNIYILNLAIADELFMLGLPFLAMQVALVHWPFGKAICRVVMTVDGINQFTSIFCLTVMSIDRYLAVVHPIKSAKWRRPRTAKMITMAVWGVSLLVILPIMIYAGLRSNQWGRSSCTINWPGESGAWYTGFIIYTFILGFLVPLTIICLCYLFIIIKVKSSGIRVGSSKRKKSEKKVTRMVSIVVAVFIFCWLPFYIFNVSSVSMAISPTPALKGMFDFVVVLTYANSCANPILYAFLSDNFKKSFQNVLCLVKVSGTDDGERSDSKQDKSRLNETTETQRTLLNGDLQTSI

Row | SMILES | EC50 (read-out: hSST2 cAMP Avg EC50) | EC50 (hSST2 cAMP Avg EC50 (nM))
1 | Cc1cc(F)cc(-c2cnc(NCCOC(=O)NCCOCCOCCOCCOCCOCCNC(=O)CN3CCN(CC(=O)O)CCN(CC(=O)O)CCN(CC(=O)O)CC3)c(-c3nc4cc(Cl)ccc4[nH]3)c2N2CCC(N)CC2)c1 [Comp. 2, 2-(7-{[(17-{[(2-{[4-(4-aminopiperidin-1-yl)-3-(5-chloro-1H-1,3-benzodiazol-2-yl)-5-(3-fluoro-5-methylphenyl)pyridin-2-yl]amino}ethoxy)carbonyl]amino}-3,6,9,12,15-pentaoxaheptadecan-1-yl)carbamoyl]methyl}-4,10-bis(carboxymethyl)-1,4,7,10-tetraazacyclododecan-1-yl)acetic acid, reference compound] | 0.17 nM | –
2 | CC[C@@]1(O)C(=O)OCc2c1cc1n(c2=O)Cc2c-1nc1cc(F)c(C)c3c1c2[C@@H](NC(=O)OCc1ccc(NC(=O)[C@H](CCCNC(N)=O)NC(=O)[C@@H](NC(=O)CCOCCC(=O)NCCNc2ncc(-c4cc(C)cc(F)c4)c(N4CCC(N)CC4)c2-c2nc4ccc(Cl)cc4[nH]2)C(C)C)c(O[C@@H]2O[C@H](C(=O)O)[C@@H](O)[C@H](O)[C@H]2O)c1)CC3 [Compound 73] | – | 0.49 nM
3 | Cc1cc(F)cc(-c2cnc(NC3CCN(C(=O)CCOCCOCCOCCOCCOCCOCCNC(=O)CN4CCN(CC(=O)O)CCN(CC(=O)O)CCN(CC(=O)O)CC4)CC3)c(-c3nc4cc(Cl)ccc4[nH]3)c2N2CCC(N)CC2)c1 [Compound 4, 2-[7-({[21-(4-{[4-(4-aminopiperidin-1-yl)-3-(5-chloro-1H-1,3-benzodiazol-2-yl)-5-(3-fluoro-5-methylphenyl)pyridin-2-yl]amino}piperidin-1-yl)-21-oxo-3,6,9,12,15,18-hexaoxahenicosan-1-yl]carbamoyl}methyl)-4,10-bis(carboxymethyl)-1,4,7,10-tetraazacyclododecan-1-yl]acetic acid] | 0.2 nM | –
4 | CC[C@@]1(O)C(=O)OCc2c1cc1n(c2=O)Cc2c-1nc1cc(F)c(C)c3c1c2[C@@H](NC(=O)OCc1ccc(NC(=O)[C@H](CCCNC(N)=O)NC(=O)[C@@H](NC(=O)CCOCCOCCOCCOCCC(=O)NCCNc2ncc(-c4cc(C)cc(F)c4)c(N4CCC(N)CC4)c2-c2nc4ccc(Cl)cc4[nH]2)C(C)C)c(O[C@@H]2O[C@H](C(=O)O)[C@@H](O)[C@H](O)[C@H]2O)c1)CC3 [Compound 74] | – | 0.31 nM
5 | Cc1cc(F)cc(-c2cnc(NCCCNC(=O)CCOCCOCCOCCOCCOCCNC(=O)CN3CCN(CC(=O)O)CCN(CC(=O)O)CCN(CC(=O)O)CC3)c(-c3nc4cc(Cl)ccc4[nH]3)c2N2CCC(N)CC2)c1 [Compound 3, 2-{7-[{{17-[(3-{[4-(4-aminopiperidin-1-yl)-3-(5-chloro-1H-1,3-benzodiazol-2-yl)-5-(3-fluoro-5-methylphenyl)pyridin-2-yl]amino}propyl)carbamoyl]-3,6,9,12,15-pentaoxaheptadecan-1-yl}carbamoyl)methyl]-4,10-bis(carboxymethyl)-1,4,7,10-tetraazacyclododecan-1-yl}acetic acid] | 0.14 nM | –
6 | Cc1cc(F)cc(-c2cnc(NCCOCCOCCOCCOCCNC(=O)CN3CCN(CC(=O)O)CCN(CC(=O)O)CCN(CC(=O)O)CC3)c(-c3ccc(C(F)(F)F)cc3)c2N2CCC(N)CC2)c1 [Compound 5, 2-(4-{[(14-{[4-(4-aminopiperidin-1-yl)-5-(3-fluoro-5-methylphenyl)-3-[4-(trifluoromethyl)phenyl]pyridin-2-yl]amino}-3,6,9,12-tetraoxatetradecan-1-yl)carbamoyl]methyl}-7,10-bis(carboxymethyl)-1,4,7,10-tetraazacyclododecan-1-yl)acetic acid] | 0.66 nM | –
7 | COCCOCCOCCOCCOCCC(=O)NCCNc1ncc(-c2cc(C)cc(F)c2)c(N2CCC(N)CC2)c1-c1nc2ccc(Cl)cc2[nH]1 [Compound 14, N-(2-{[4-(4-aminopiperidin-1-yl)-3-(6-chloro-1H-1,3-benzodiazol-2-yl)-5-(3-fluoro-5-methylphenyl)pyridin-2-yl]amino}ethyl)-2,5,8,11,14-pentaoxaheptadecan-17-amide] | 0.048 nM | –
8 | Cc1cc(F)cc(-c2cnc(NC3CCN(C(=O)CCOCCOCCOCCOCCOCCOCCNC(=O)CN4CCN5CCN6CCN(CC4)CC(=O)[O][In]([O]C(=O)C5)[O]C(=O)C6)CC3)c(-c3nc4cc(Cl)ccc4[nH]3)c2N2CCC(N)CC2)c1 [Compound 17, N-[21-(4-{[4-(4-aminopiperidin-1-yl)-3-(5-chloro-1H-1,3-benzodiazol-2-yl)-5-(3-fluoro-5-methylphenyl)pyridin-2-yl]amino}piperidin-1-yl)-21-oxo-3,6,9,12,15,18-hexaoxahenicosan-1-yl]-2-{3,16,19-trioxo-2,17,18-trioxa-5,8,11,14-tetraaza-1-indatricyclo[9.6.3.2^5,^14]docosan-8-yl}acetamide] | 0.1 nM | –
9 | Cc1cc(F)cc(-c2cnc(NCCNC(=O)CCOCCOCCOCCOCCOCCNC(=O)CN3CCN(CC(=O)O)CCN(CC(=O)O)CCN(CC(=O)O)CC3)c(-c3nc4cc(Cl)ccc4[nH]3)c2N2CCC(N)CC2)c1 [Comp. 1, 2-{7-[({17-[(2-{[4-(4-aminopiperidin-1-yl)-3-(5-chloro-1H-1,3-benzodiazol-2-yl)-5-(3-fluoro-5-methylphenyl)pyridin-2-yl]amino}ethyl)carbamoyl]-3,6,9,12,15-pentaoxaheptadecan-1-yl}carbamoyl)methyl}-4,10-bis(carboxymethyl)-1,4,7,10-tetraazacyclododecan-1-yl}acetic acid, reference compound] | 0.075 nM | –
10 | Cc1cc(F)cc(-c2cnc(NCCNC(=O)CCOCCOCCOCCOCCOCCNC(=O)CN3CCN4CCN5CCN(CC3)CC(=O)[O][In]([O]C(=O)C4)[O]C(=O)C5)c(-c3nc4cc(Cl)ccc4[nH]3)c2N2CCC(N)CC2)c1 [Compound 15, N-(2-{[4-(4-aminopiperidin-1-yl)-3-(5-chloro-1H-1,3-benzodiazol-2-yl)-5-(3-fluoro-5-methylphenyl)pyridin-2-yl]amino}ethyl)-1-(2-{3,16,19-trioxo-2,17,18-trioxa-5,8,11,14-tetraaza-1-indatricyclo[9.6.3.2^5,14]docosan-8-yl}acetamido)-3,6,9,12,15-pentaoxaoctadecan-18-amide] | 0.057 nM | –
11 | Cc1cc(F)cc(-c2cnc(NCCOCCOCCOCCOCCNC(=O)CN3CCN4CCN5CCN(CC3)CC(=O)[O][In]([O]C(=O)C4)[O]C(=O)C5)c(-c3ccc(C(F)(F)F)cc3)c2N2CCC(N)CC2)c1 [Compound 18, N-(14-{[4-(4-aminopiperidin-1-yl)-5-(3-fluoro-5-methylphenyl)-3-[4-(trifluoromethyl)phenyl]pyridin-2-yl]amino}-3,6,9,12-tetraoxatetradecan-1-yl)-2-{3,16,19-trioxo-2,17,18-trioxa-5,8,11,14-tetraaza-1-indatricyclo[9.6.3.2^5,^14]docosan-8-yl}acetamide] | 1.8 nM | –
12 | Cc1cc(F)cc(-c2cnc(NCCCNC(=O)CCOCCOCCOCCOCCOCCNC(=O)CN3CCN4CCN5CCN(CC3)CC(=O)[O][In]([O]C(=O)C4)[O]C(=O)C5)c(-c3nc4cc(Cl)ccc4[nH]3)c2N2CCC(N)CC2)c1 [Compound 16, N-(3-{[4-(4-aminopiperidin-1-yl)-3-(5-chloro-1H-1,3-benzodiazol-2-yl)-5-(3-fluoro-5-methylphenyl)pyridin-2-yl]amino}propyl)-1-(2-{3,16,19-trioxo-2,17,18-trioxa-5,8,11,14-tetraaza-1-indatricyclo[9.6.3.2^5,^14]docosan-8-yl}acetamido)-3,6,9,12,15-pentaoxaoctadecan-18-amide] | 0.11 nM | –
